Laboratory results reported in US20060069132A1, “Azolecarboxamide herbicides” (priority 2004, published 2006).

What was measured:
Experiment in all cases: Test E pre-/postemergence herbicide test
[1] = system: goosegrass; format: in vivo, Eleusine indica
Procedure, shortened: (§1)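 Herbicidal effect scored visually, 0–100 scale, versus controls. Treatments: preemergence on planted seed; postemergence on 2–18 cm seedlings. Greenhouse, 12 to 14 days.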

[2] = system: johnsongrass; format: in vivo, Sorghum halepense
Procedure, shortened: as §1

[3] = system: pitted morningglory; format: in vivo, Ipomoea lacunosa
Procedure, shortened: as §1

[4] = system: purple nutsedge; format: in vivo, Cyperus rotundus
Procedure, shortened: as §1

[5] = system: dallisgrass; format: in vivo, Paspalum dilatatum
Procedure, shortened: as §1

[6] = system: barnyardgrass; format: in vivo, Echinochloa crus-galli
Procedure, shortened: as §1

[7] = system: southern sandbur; format: in vivo, Cenchrus echinatus
Procedure, shortened: as §1

[8] = system: common sowthistle; format: in vivo, Sonchus oleraceous
Procedure, shortened: as §1

[9] = system: Italian ryegrass; format: in vivo, Lolium multiflorum
Procedure, shortened: as §1

[10] = system: common purslane; format: in vivo, Portulaca oleracea; conditions: Preemergence
Procedure, shortened: as §1

[11] = system: common groundsel; format: in vivo, Senecio vulgaris
Procedure, shortened: as §1

[12] = system: common chickweed; format: in vivo, Stellaria media
Procedure, shortened: as §1

[13] = system: annual bluegrass; format: in vivo, Poa annua
Procedure, shortened: as §1

[14] = system: downy bromegrass; format: in vivo, Bromus tectorum
Procedure, shortened: as §1

[15] = system: itchgrass; format: in vivo, Rottboellia cochinchinensis
Procedure, shortened: as §1

[16] = system: common mallow; format: in vivo, Malva sylvestris
Procedure, shortened: as §1

[17] = Postemergence, 500 g ai/ha, scale 0 to 100
[18] = Postemergence, 250 g ai/ha, scale 0 to 100
[19] = Preemergence, 62 g ai/ha, scale 0 to 100
[20] = Preemergence, 125 g ai/ha, scale 0 to 100
[21] = Preemergence, 250 g ai/ha, scale 0 (no effect) to 100 (complete control)
[22] = Preemergence, 500 g ai/ha, scale 0 (no effect) to 100 (complete control)
[23] = postemergence, 125 g ai/ha, scale 0 to 100
[24] = 250 g ai/ha, scale 0 (no effect) to 100 (complete control)
[25] = 500 g ai/ha, scale 0 (no effect) to 100 (complete control)

## CCNC(=O)c1ccnc(NC(=O)c2cc(C(C)(C)C)nn2CC)c1 [Compound 152]
[1]; [17]
  Plant response rating, Goosegrass: 75
[1]; [18]
  Plant response rating, Goosegrass: 60
[1]; [19]
  Plant response rating, Goosegrass: 30
[1]; [20]
  Plant response rating, Goosegrass: 70
[1]; [21]
  Plant response rating, Goosegrass: 80
[1]; [22]
  Plant response rating, Goosegrass: 90
[1]; [23]
  Plant response rating, Goosegrass: 50
[2]; [17]
  Plant response rating, Johnsongrass: 95
[2]; [18]
  Plant response rating, Johnsongrass: 80
[2]; [19]
  Plant response rating, Johnsongrass: 30
[2]; [20]
  Plant response rating, Johnsongrass: 50
[2]; [21]
  Plant response rating, Johnsongrass: 80
[2]; [22]
  Plant response rating, Johnsongrass: 85
[2]; [23]
  Plant response rating, Johnsongrass: 70
[3]; [17]
  Plant response rating, Morningglory: 30
[3]; [18]
  Plant response rating, Morningglory: 20
[3]; [19]
  Plant response rating, Morningglory: 10
[3]; [20]
  Plant response rating, Morningglory: 10
[3]; [21]
  Plant response rating, Morningglory: 40
[3]; [22]
  Plant response rating, Morningglory: 40
[3]; [23]
  Plant response rating, Morningglory: 10
[4]; [17]
  Plant response rating, Nutsedge, Purple: 75
[4]; [18]
  Plant response rating, Nutsedge, Purple: 60
[4]; [19]
  Plant response rating, Nutsedge, Purple: 0
[4]; [20]
  Plant response rating, Nutsedge, Purple: 20
[4]; [21]
  Plant response rating, Nutsedge, Purple: 50
[4]; [22]
  Plant response rating, Nutsedge, Purple: 60
[4]; [23]
  Plant response rating, Nutsedge, Purple: 30
[5]; [17]
  Plant response rating, Dallisgrass: 75
[5]; [18]
  Plant response rating, Dallisgrass: 75
[5]; [19]
  Plant response rating, Dallisgrass: 50
[5]; [20]
  Plant response rating, Dallisgrass: 80
[5]; [21]
  Plant response rating, Dallisgrass: 85
[5]; [22]
  Plant response rating, Dallisgrass: 95
[5]; [23]
  Plant response rating, Dallisgrass: 30
[6]; [17]
  Plant response rating, Barnyardgrass: 75
[6]; [18]
  Plant response rating, Barnyardgrass: 75
[6]; [19]
  Plant response rating, Barnyardgrass: 60
[6]; [20]
  Plant response rating, Barnyardgrass: 75
[6]; [21]
  Plant response rating, Barnyardgrass: 85
[6]; [22]
  Plant response rating, Barnyardgrass: 90
[6]; [23]
  Plant response rating, Barnyardgrass: 50
[7]; [17]
  Plant response rating, Sandbur: 100
[7]; [18]
  Plant response rating, Sandbur: 40
[7]; [19]
  Plant response rating, Sandbur: 10
[7]; [20]
  Plant response rating, Sandbur: 30
[7]; [21]
  Plant response rating, Sandbur: 70
[7]; [22]
  Plant response rating, Sandbur: 80
[7]; [23]
  Plant response rating, Sandbur: 20
[8]; [17]
  Plant response rating, Sowthistle: 100
[8]; [18]
  Plant response rating, Sowthistle: 90
[8]; [19]
  Plant response rating, Sowthistle: 80
[8]; [20]
  Plant response rating, Sowthistle: 80
[8]; [21]
  Plant response rating, Sowthistle: 95
[8]; [22]
  Plant response rating, Sowthistle: 95
[9]; [17]
  Plant response rating, Ryegrass, Italian: 90
[9]; [18]
  Plant response rating, Ryegrass, Italian: 90
[9]; [19]
  Plant response rating, Ryegrass, Italian: 20
[9]; [20]
  Plant response rating, Ryegrass, Italian: 50
[9]; [21]
  Plant response rating, Ryegrass, Italian: 80
[9]; [22]
  Plant response rating, Ryegrass, Italian: 95
[9]; [23]
  Plant response rating, Ryegrass, Italian: 90
[10]; 62 g ai/ha, scale 0 to 100
  Plant response rating, Purslane: 0
[10]; 125 g ai/ha, scale 0 to 100
  Plant response rating, Purslane: 0
[10]; [24]
  Plant response rating, Purslane: 50
[10]; [25]
  Plant response rating, Purslane: 100
[11]; [17]
  Plant response rating, Groundsel: 95
[11]; [18]
  Plant response rating, Groundsel: 95
[11]; [19]
  Plant response rating, Groundsel: 95
[11]; [20]
  Plant response rating, Groundsel: 100
[11]; [21]
  Plant response rating, Groundsel: 100
[11]; [22]
  Plant response rating, Groundsel: 100
[11]; [23]
  Plant response rating, Groundsel: 90
[12]; [17]
  Plant response rating, Chickweed: 100
[12]; [19]
  Plant response rating, Chickweed: 90
[12]; [20]
  Plant response rating, Chickweed: 95
[12]; [21]
  Plant response rating, Chickweed: 100
[12]; [22]
  Plant response rating, Chickweed: 100
[13]; [17]
  Plant response rating, Bluegrass: 85
[13]; [18]
  Plant response rating, Bluegrass: 85
[13]; [19]
  Plant response rating, Bluegrass: 60
[13]; [20]
  Plant response rating, Bluegrass: 80
[13]; [21]
  Plant response rating, Bluegrass: 95
[13]; [22]
  Plant response rating, Bluegrass: 95
[13]; [23]
  Plant response rating, Bluegrass: 60
[14]; [17]
  Plant response rating, Bromegrass, Downy: 80
[14]; [18]
  Plant response rating, Bromegrass, Downy: 75
[14]; [19]
  Plant response rating, Bromegrass, Downy: 0
[14]; [20]
  Plant response rating, Bromegrass, Downy: 30
[14]; [21]
  Plant response rating, Bromegrass, Downy: 60
[14]; [22]
  Plant response rating, Bromegrass, Downy: 90
[15]; [17]
  Plant response rating, Itchgrass: 75
[15]; [18]
  Plant response rating, Itchgrass: 75
[15]; [19]
  Plant response rating, Itchgrass: 20
[15]; [20]
  Plant response rating, Itchgrass: 60
[15]; [21]
  Plant response rating, Itchgrass: 75
[15]; [22]
  Plant response rating, Itchgrass: 80
[15]; [23]
  Plant response rating, Itchgrass: 60
[16]; [17]
  Plant response rating, Mallow: 50
[16]; [18]
  Plant response rating, Mallow: 50
[16]; [19]
  Plant response rating, Mallow: 40
[16]; [20]
  Plant response rating, Mallow: 80
[16]; [21]
  Plant response rating, Mallow: 90
[16]; [22]
  Plant response rating, Mallow: 90

## CCc1nn(C(C)(C)CC)nc1C(=O)Nc1cccc(C(=O)N(C)C)c1 [Compound 372]
[1]; [19]
  Plant response rating, Goosegrass: 40
[1]; [20]
  Plant response rating, Goosegrass: 40
[1]; [21]
  Plant response rating, Goosegrass: 50
[1]; [22]
  Plant response rating, Goosegrass: 75
[2]; [19]
  Plant response rating, Johnsongrass: 30
[2]; [20]
  Plant response rating, Johnsongrass: 50
[2]; [21]
  Plant response rating, Johnsongrass: 70
[2]; [22]
  Plant response rating, Johnsongrass: 80
[3]; [19]
  Plant response rating, Morningglory: 10
[3]; [20]
  Plant response rating, Morningglory: 20
[3]; [21]
  Plant response rating, Morningglory: 50
[3]; [22]
  Plant response rating, Morningglory: 60
[4]; [19]
  Plant response rating, Nutsedge, Purple: 30
[4]; [21]
  Plant response rating, Nutsedge, Purple: 50
[4]; [22]
  Plant response rating, Nutsedge, Purple: 100
[5]; [19]
  Plant response rating, Dallisgrass: 10
[5]; [20]
  Plant response rating, Dallisgrass: 50
[5]; [21]
  Plant response rating, Dallisgrass: 80
[5]; [22]
  Plant response rating, Dallisgrass: 85
[6]; [19]
  Plant response rating, Barnyardgrass: 50
[6]; [20]
  Plant response rating, Barnyardgrass: 70
[6]; [21]
  Plant response rating, Barnyardgrass: 80
[6]; [22]
  Plant response rating, Barnyardgrass: 95
[7]; [19]
  Plant response rating, Sandbur: 20
[7]; [20]
  Plant response rating, Sandbur: 30
[7]; [21]
  Plant response rating, Sandbur: 60
[7]; [22]
  Plant response rating, Sandbur: 70
[8]; [19]
  Plant response rating, Sowthistle: 10
[8]; [20]
  Plant response rating, Sowthistle: 40
[8]; [21]
  Plant response rating, Sowthistle: 40
[8]; [22]
  Plant response rating, Sowthistle: 95
[9]; [19]
  Plant response rating, Ryegrass, Italian: 60
[9]; [20]
  Plant response rating, Ryegrass, Italian: 70
[9]; [21]
  Plant response rating, Ryegrass, Italian: 95
[9]; [22]
  Plant response rating, Ryegrass, Italian: 95
[10]; 62 g ai/ha, scale 0 to 100
  Plant response rating, Purslane: 10
[10]; 125 g ai/ha, scale 0 to 100
  Plant response rating, Purslane: 40
[10]; [24]
  Plant response rating, Purslane: 50
[10]; [25]
  Plant response rating, Purslane: 100
[11]; [19]
  Plant response rating, Groundsel: 20
[11]; [20]
  Plant response rating, Groundsel: 70
[11]; [21]
  Plant response rating, Groundsel: 70
[11]; [22]
  Plant response rating, Groundsel: 95
[12]; [19]
  Plant response rating, Chickweed: 60
[12]; [20]
  Plant response rating, Chickweed: 90
[12]; [21]
  Plant response rating, Chickweed: 95
[12]; [22]
  Plant response rating, Chickweed: 95
[13]; [19]
  Plant response rating, Bluegrass: 30
[13]; [20]
  Plant response rating, Bluegrass: 80
[13]; [21]
  Plant response rating, Bluegrass: 95
[13]; [22]
  Plant response rating, Bluegrass: 95
[14]; [19]
  Plant response rating, Bromegrass, Downy: 20
[14]; [20]
  Plant response rating, Bromegrass, Downy: 70
[14]; [21]
  Plant response rating, Bromegrass, Downy: 80
[14]; [22]
  Plant response rating, Bromegrass, Downy: 85
[15]; [19]
  Plant response rating, Itchgrass: 30
[15]; [20]
  Plant response rating, Itchgrass: 60
[15]; [21]
  Plant response rating, Itchgrass: 60
[15]; [22]
  Plant response rating, Itchgrass: 80
[16]; [19]
  Plant response rating, Mallow: 50
[16]; [20]
  Plant response rating, Mallow: 50
[16]; [21]
  Plant response rating, Mallow: 80
[16]; [22]
  Plant response rating, Mallow: 90
